Results published in patent publication US20220257571A1, “INHIBITOR OF MAP KINASE INTERACTING SERINE/THREONINE KINASE 1 (MNK1) AND MAP KINASE INTERACTING SERINE/THREONINE KINASE 2 (MNK2), CANCER THERAPY AND THERAPEUTIC COMBINATIONS” (FUNPACIÓ HOSPITAL UNIVERSITARI VALL D'HEBRON - INSTITUT DE …, priority 2019, published 2022).

Columns and labels:
[1] = molecular target: T1, EphA4 receptor tyrosine kinase (Homo sapiens, UniProt P54764); test: inhibitory test of EphA4 in the kinase panel; assay type: biochemical
T1 construct: purchased Proqinase
T1 sequence (P54764 20-986): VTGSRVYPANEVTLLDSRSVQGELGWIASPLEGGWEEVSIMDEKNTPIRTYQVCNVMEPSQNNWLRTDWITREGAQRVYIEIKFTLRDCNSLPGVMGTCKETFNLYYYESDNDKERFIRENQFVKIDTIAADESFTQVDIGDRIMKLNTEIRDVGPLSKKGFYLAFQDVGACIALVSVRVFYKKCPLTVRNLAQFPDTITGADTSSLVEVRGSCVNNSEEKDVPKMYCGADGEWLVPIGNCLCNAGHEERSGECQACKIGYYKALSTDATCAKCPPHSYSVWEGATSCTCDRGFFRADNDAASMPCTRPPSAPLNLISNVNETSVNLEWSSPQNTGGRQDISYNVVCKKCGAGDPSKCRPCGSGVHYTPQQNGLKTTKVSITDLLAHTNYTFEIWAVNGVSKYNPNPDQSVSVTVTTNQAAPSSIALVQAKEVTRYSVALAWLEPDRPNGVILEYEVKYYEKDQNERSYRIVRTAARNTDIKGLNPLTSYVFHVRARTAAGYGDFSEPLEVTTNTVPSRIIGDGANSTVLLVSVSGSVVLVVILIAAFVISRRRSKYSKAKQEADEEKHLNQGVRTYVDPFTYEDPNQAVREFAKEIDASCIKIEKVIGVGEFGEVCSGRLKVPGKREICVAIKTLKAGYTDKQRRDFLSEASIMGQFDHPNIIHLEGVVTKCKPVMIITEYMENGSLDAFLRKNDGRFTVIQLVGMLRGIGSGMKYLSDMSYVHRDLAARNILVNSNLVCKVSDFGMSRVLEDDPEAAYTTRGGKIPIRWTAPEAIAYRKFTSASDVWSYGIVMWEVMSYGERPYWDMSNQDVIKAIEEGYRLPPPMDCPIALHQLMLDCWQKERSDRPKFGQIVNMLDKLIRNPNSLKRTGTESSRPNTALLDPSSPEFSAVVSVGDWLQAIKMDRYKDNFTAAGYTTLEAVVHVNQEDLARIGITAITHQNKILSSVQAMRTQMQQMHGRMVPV
Procedure: (§1) The kinase activity of the compound was measured by a radiometric kinase assay (^33PanQinase® Activity Assay) carried out by Proqinase (www.proqinase.com).
(§2) The assays were carried out in 96-well FlashPlates™ by PerkinElmer (Boston, Mass., USA) with a reaction volume of 50 μl. The reaction cocktail was pipetted in 4 steps: (1) 20 μl buffer, (2) 5 μl ATP solution (in H2O), (3) 5 μl compound (in 10% DMSO) and (4) 20 μl enzyme/substrate mixture. Lastly, the cocktail contained 70 mM HEPES-NaOH pH 7.5, 3 mM MgCl2, 3 mM MnCl2, 3 μM sodium orthovanadate, 1.2 mM DTT, 50 μg/ml PEG20000, ATP (1 μM for MNK1 and 0.3 μM for MNK2), [γ-^33P]-ATP (approx. […] per well), protein kinase (variable amounts depending on the batch) and substrate (2 μg/50 μl).
Reaction cocktails were incubated at 30° C. for 60 minutes. The reaction was stopped with 50 μl of 2% H3PO4 (v/v), the plates were sucked, they were washed twice with 200 μl of 0.9% NaCl (w/v) and the incorporation of ^33Pi (MicroBeta microplate scintillation counter, Wallac) was determined. […]
(§3) The residual activity (in %) for each well of a particular plate was calculated using the following formula (wherein high control is the kinase activity in absence of an inhibitor and low control is the radioactivity value of the substrate in absence of a kinase).
(§4) To study selectivity, residual activity was measured at 1 μM from a 320-kinase panel.

[2] = tested on: eIF4E phosphorylation in MDA-MB-231 cells; test: inhibition of eIF4E phosphorylation by Western Blot in MDA-MB-231 cells; assay type: cell-based, human
Procedure: (§5) Commercially available MDA-MB-231, MDA-MB-468, MCF7 and A375M, IMR90 (IMR-90 (ATCC® CCL-186TH) cells were grown at 37° C. and 5% CO2 in DMEM medium (Dulbecco's Modified Eagle Medium, 4.5 g/I glucose; 30 mg/I L-Glutamine (Gibco)) supplemented with 10% foetal bovine serum, 100 U/ml penicillin and 100 μg/ml streptomycin.
Inhibition of eIF4E phosphorylation was quantified by Western Blot. Cells were seeded in 60 mm plates (700,000 cells for 24 h, 500,000 cells for 48 h and 300,000 cells for 72 h).
After 24 h, the treatments were added. The stocks of compounds were prepared in […] at a concentration 200 times more concentrated than the treatment concentration. Thus, in all cases, the final concentration of DMSO in the medium was 0.5%.
After incubation, proteins were removed and Western Blot was performed. On ice, the plates were washed with PBS and the cells were lysed with 60 μl lysis buffer (50 mM Tris, 200 mM NaCl, 5 mM EDTA, 0.1% Triton 100×, pH 7.5 supplemented with protease inhibitors (EDTA-free Protease Inhibitor Cocktail Set III, Calbiochem) and phosphatase inhibitors (Phosphatase Inhibitor Cocktail Set II, Calbiochem)). The samples were centrifuged at 15,000 g and the supernatant was quantified by the Bradford method. The samples were all diluted to the same concentration with a lysis buffer and loading buffer (Laemmli buffer) and denatured for 5 minutes at 95° C. The proteins were separated on a 12% […] gel (20 μg were loaded per well) and transferred to a PDVF (Polyvinylidene fluoride) membrane. β-Actin antibodies, abbreviated as “actin” in the figures (Calbiochem), eIF4E (anti-rabbit, Cell signalling), and phosphorylated-eIF4E (S209) (anti-rabbit, Cell signalling) in 5% BSA in TBST were used to study the activity of the compounds. Selectivity against MNK was analysed with ERK, p-ERK, MNK1, p-MNK1, 4EBP1 and p-4EBP1 antibodies.

[3] = tested on: MDA-MB-231 cells; test: in vitro proliferation assay (crystal violet), MDA-MB-231; assay type: cell-based, human; conditions: tumour cells MDA-MB-231, concentrations necessary to inhibit MNK activity
Procedure: as §5
In 96-well plates, 5000 cells were seeded for each condition. After 24 h, the cells were treated with the compound at the corresponding concentration. The stocks of compounds were prepared in 100% DMSO at a concentration 200 times more concentrated than the treatment concentration. Thus, in all cases, the final concentration of DMSO in the medium is 0.5%. After incubation, the medium was removed and the cells were fixed with 4% PFA (100 μl per well) for 30 minutes. Two washes with PBS were performed.
Cells were stained with crystal violet (0.5% in EtOH): 100 μl were added to each well, stirred for 15 minutes, washed with water and left to dry. The content of each well was dissolved in 200 μl of 15% AcOH and the absorbance thereof was measured at 595 nm.

[4] = molecular target: T2, MNK1 (Homo sapiens, UniProt Q9BUB5); test: radiometric kinase assay (33PanQinase Activity Assay), MNK1; assay type: biochemical
T2 construct: purchased Proqinase
T2 sequence (Q9BUB5 whole entry): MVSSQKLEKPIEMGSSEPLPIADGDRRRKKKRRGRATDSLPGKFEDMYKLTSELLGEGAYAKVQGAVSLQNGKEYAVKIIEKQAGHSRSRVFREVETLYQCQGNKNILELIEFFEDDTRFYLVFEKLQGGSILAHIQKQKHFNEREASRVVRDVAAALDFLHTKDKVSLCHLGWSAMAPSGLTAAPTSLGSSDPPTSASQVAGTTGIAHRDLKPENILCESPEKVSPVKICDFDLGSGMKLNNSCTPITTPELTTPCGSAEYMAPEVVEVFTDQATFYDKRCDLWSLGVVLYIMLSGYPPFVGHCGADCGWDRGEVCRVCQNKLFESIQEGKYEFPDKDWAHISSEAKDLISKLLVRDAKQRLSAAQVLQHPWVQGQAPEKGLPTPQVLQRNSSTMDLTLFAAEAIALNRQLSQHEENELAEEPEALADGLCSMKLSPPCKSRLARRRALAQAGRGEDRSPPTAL
Procedure: as §1, §2
Reaction cocktails were incubated at 30° C. for 60 minutes. The reaction was stopped with 50 μl of 2% H3PO4 (v/v), the plates were sucked, they were washed twice with 200 μl of 0.9% NaCl (w/v) and the incorporation of ^33Pi (MicroBeta microplate scintillation counter, Wallac) was determined. All assays were performed with a Beckman Coulter/SAGIAN™ system.
as §3
To screen compounds, the residual activity of both kinases was analysed after treatment with 10 μM of the compounds.
as §4

SMILES: Nc1n[nH]c2nc(-c3ccccc3)cc(-c3ccccc3)c12 [EB1, 4,6-diphenyl-1H-pyrazolo[3,4-b]pyridin-3-amine]
- inhibition at 1 µM [1]: 10%
- EC50 ([2]; Homo sapiens, MDA-MB-231 triple-negative breast cancer cells, read-out: in vitro EC50, inhibition of eIF4E phosphorylation): ~1500 nM
- concentration at which eIF4E phosphorylation is significantly reduced ([2]; MDA-MB-231): greater than 2.5 μM
- concentration giving almost complete inhibition of eIF4E phosphorylation ([2]; MDA-MB-231): ≥ 2.5 µM
- duration of the effect on eIF4E phosphorylation ([2]; MDA-MB-231): at least 72 h
- reversal of the increased eIF4E phosphorylation caused by doxorubicin ([2]; MDA-MB-231, 5 μM EB1 with doxorubicin): can be reversed
- effect on components of the signalling pathway (p-MNK, ERK, 4E-BP1) ([2]; MDA-MB-231, Western Blot): does not affect any of the components of the signalling pathway
- effect on cell growth [3]: does not affect the cell growth
- remaining activity at 10 µM ([4]; after treatment with 10 μM compound, ATP 1 μM, read-out: residual activity of MNK1): 14%
- inhibition at 1 µM ([4]; at 1 uM, kinase panel): 48%
